Molecular target: T1, GST-RIPK1 (recombinant GST-RIPK1 kinase domain (residues 1-327)) (Homo sapiens, UniProt Q13546)
T1 construct: recombinant GST-RIPK1 kinase domain (residues 1-327) enzyme; made in house; host or cells: baculovirus-transfected Sf21 insect cells
T1 sequence (Q13546 1-327): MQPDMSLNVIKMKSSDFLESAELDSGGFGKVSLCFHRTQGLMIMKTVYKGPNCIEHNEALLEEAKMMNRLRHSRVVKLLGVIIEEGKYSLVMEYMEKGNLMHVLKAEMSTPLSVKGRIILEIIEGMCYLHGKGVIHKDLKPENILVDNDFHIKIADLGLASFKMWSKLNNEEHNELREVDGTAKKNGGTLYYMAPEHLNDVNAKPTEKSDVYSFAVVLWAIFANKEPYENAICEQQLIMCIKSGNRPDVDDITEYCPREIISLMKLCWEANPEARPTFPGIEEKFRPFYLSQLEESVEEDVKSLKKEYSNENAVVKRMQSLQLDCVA
Experiment: RIPK1-ADP-Glo enzymatic assay
Type: biochemical
Conditions: 25 nM GST-RIPK1, 300 μM ATP, 3 μM dephosphorylated-MBP; 30 minutes pre-incubation, 150 minutes reaction; ten-point titration
How it was run: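 Ten-point 1:3 titrations from 100000 nM, 1% DMSO, were preincubated 30 min with 25 nM GST-RIPK1 (1-327) before starting with 300 μM ATP plus 3 μM dephosphorylated MBP; 150 min reaction. ADP-Glo luminescence measured ATP-to-ADP conversion; EC50 by four-parameter sigmoidal regression.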

Row | SMILES | IC50 [nM]
1 | CC(C)(C)c1ncc(C#Cc2cncc3c2O[C@H]2C[C@@H]3N(C(=O)C(C)(C)C(F)F)C2)cn1 [Compound 2-73, 1-((2S,5S)-9-((2-(tert-butyl)pyrimidin-5-yl)ethynyl)-2,3-dihydro-2,5-methanopyrido[3,4-f][1,4]oxazepin-4(5H)-yl)-3,3-difluoro-2,2-dimethylpropan-1-one] | 19
2 | CC(C)Oc1ncc(C#Cc2cncc3c2O[C@H]2C[C@@H]3N(C(=O)C(C)(C)C(F)F)C2)cn1 [Compound 2-74, 3,3-difluoro-1-((2S,5S)-9-((2-isopropoxypyrimidin-5-yl)ethynyl)-2,3-dihydro-2,5-methanopyrido[3,4-f][1,4]oxazepin-4(5H)-yl)-2,2-dimethylpropan-1-one] | 18
3 | CC(C)(C(=O)N1C[C@@H]2C[C@H]1c1cncc(C#Cc3cnc4ccnn4c3)c1O2)C(F)F [Compound 2-75, 3,3-difluoro-2,2-dimethyl-1-((2S,5S)-9-(pyrazolo[1,5-a]pyrimidin-6-ylethynyl)-2,3-dihydro-2,5-methanopyrido[3,4-f][1,4]oxazepin-4(5H)-yl)propan-1-one] | 27
4 | Cc1ncc(C#Cc2cncc3c2O[C@H]2C[C@@H]3N(C(=O)C(C)(C)C(F)F)C2)cn1 [Compound 2-76, 3,3-difluoro-2,2-dimethyl-1-((2S,5S)-9-((2-methylpyrimidin-5-yl)ethynyl)-2,3-dihydro-2,5-methanopyrido[3,4-f][1,4]oxazepin-4(5H)-yl)propan-1-one] | 33
5 | CC(C)(C(=O)N1C[C@@H]2C[C@H]1c1cncc(C#Cc3cnc(C(F)(F)F)nc3)c1O2)C(F)F [Compound 2-77, 3,3-difluoro-2,2-dimethyl-1-((2S,5S)-9-((2-(trifluoromethyl)pyrimidin-5-yl)ethynyl)-2,3-dihydro-2,5-methanopyrido[3,4-f][1,4]oxazepin-4(5H)-yl)propan-1-one] | 49
6 | CC(C)(C(=O)N1C[C@@H]2C[C@H]1c1cncc(C#Cc3cnc(C#N)nc3)c1O2)C(F)F [Compound 2-78, 5-(((2S,5S)-4-(3,3-difluoro-2,2-dimethylpropanoyl)-2,3,4,5-tetrahydro-2,5-methanopyrido[3,4-f][1,4]oxazepin-9-yl)ethynyl)pyrimidine-2-carbonitrile] | 19
7 | CC(C)(C(=O)N1C[C@@H]2C[C@H]1c1cncc(C#Cc3cnc4ncnn4c3)c1O2)C(F)F [Compound 2-79, 1-((2S,5S)-9-([1,2,4]triazolo[1,5-a]pyrimidin-6-ylethynyl)-2,3-dihydro-2,5-methanopyrido[3,4-f][1,4]oxazepin-4(5H)-yl)-3,3-difluoro-2,2-dimethylpropan-1-one] | 72
8 | CC(C)(C(=O)N1C[C@@H]2C[C@H]1c1cncc(C#Cc3cnc(C4CC4)nc3)c1O2)C(F)F [Compound 2-80, 1-((2S,5S)-9-((2-cyclopropylpyrimidin-5-yl)ethynyl)-2,3-dihydro-2,5-methanopyrido[3,4-f][1,4]oxazepin-4(5H)-yl)-3,3-difluoro-2,2-dimethylpropan-1-one] | 24
9 | CC(C)(C(=O)N1C[C@@H]2C[C@H]1c1cncc(C#Cc3cnc4c(Cl)cnn4c3)c1O2)C(F)F [Compound 2-81, 1-((2S,5S)-9-((3-chloropyrazolo[1,5-a]pyrimidin-6-yl)ethynyl)-2,3-dihydro-2,5-methanopyrido[3,4-f][1,4]oxazepin-4(5H)-yl)-3,3-difluoro-2,2-dimethylpropan-1-one] | 22
10 | Cc1ncccc1C#Cc1cncc2c1O[C@H]1C[C@@H]2N(C(=O)C(C)(C)C(F)F)C1 [Compound 2-82, 3,3-difluoro-2,2-dimethyl-1-((2S,5S)-9-((2-methylpyridin-3-yl)ethynyl)-2,3-dihydro-2,5-methanopyrido[3,4-f][1,4]oxazepin-4(5H)-yl)propan-1-one] | 66
11 | CC(C)(C(=O)N1C[C@@H]2C[C@H]1c1cncc(C#Cc3ccc(C4CC4)nc3)c1O2)C(F)F [Compound 2-83, 1-((2S,5S)-9-((6-cyclopropylpyridin-3-yl)ethynyl)-2,3-dihydro-2,5-methanopyrido[3,4-f][1,4]oxazepin-4(5H)-yl)-3,3-difluoro-2,2-dimethylpropan-1-one] | 24
